Holding throughout (type): biochemical
The target of one assay is T1, α-synuclein (α-syn) (Homo sapiens, UniProt P37840).
T1 construct: purchased rPeptide, LLC (Watkinsville, GA)
Briefly: Thioflavin T (ThT) fluorescence assay of α-syn fibril formation. Particulars: compound 100 μM; ThT fluorescence intensity at plateau phase, control = 100%. As for the experimental part: (§1) ThT fluorescence is routinely established assay to follow the kinetics of α-syn fibril formation with different drug candidate treatments. Compounds were first tested at a final of concentration of 100 μM and α-syn and 2N4R tau were prepared at 2 μM and 6 μM, respectively. Compounds with highest anti-fibrillary activity were tested at 3.125, 6.25, 12.5, 25, 50, and 100 μM to obtain dose-response curves.
For the α-syn ThT assay, ThT was used at a final concentration of 20 μM. α-Syn was dissolved in 20 mM Tris-HCl (pH 7.4) supplemented with 100 mM NaCl to a stock solution of 280 μM (1 mg/250 μL) prior to resuspension in ThT buffer to obtain a final concentration of 2 μM. Compounds and ThT were first added to the wells. The kinetics of fibril formation begin when the α-syn was solubilized in the ThT buffer (10 mM PBS buffer (pH 7.4), supplemented with 0.5 mM SDS and 300 mM NaCl) and added to a non-treated black 96 well microplate with a transparent flat bottom. Each well was filled with a maximum volume of 150 μL buffer with one 3 mm borosilicate bead. The background fluorescence signal consisted of ThT in buffer and 0.25% DMSO without α-syn. The excitation and emission wavelengths were set at 440 and 485 nm, respectively, with a Synergy HT multi-mode microplate reader (BioTek, Winooski, VT). Measurements were taken at 37° C. every 20 minutes over 50 hours of shaking prior to reading the plate. Samples were measured in three replicates and the experiments were repeated three times using different α-syn stock solutions. For each time point, the background fluorescence signal was subtracted. Arbitrary units of fluorescence were calculated from the mean values normalized against the maximum value in each completed assay. Arbitrarily, the maximum value (100%) for the fluorescence intensity was established for α-syn.
Compounds were tested at 100 μM with α-syn at 6 μM, resulting in a molar ratio of approximately 1:16 (protein:compound). The plateau phase of sigmoidal kinetics is of particular interest because it is the phase in which mature fibrils form and where aggregation and disaggregation are at equilibrium with each other; therefore, the fluorescence intensity between multiple compounds at the plateau phase can be compared to identify the compounds with the most promising anti-aggregation activity (Table 1, column α-syn ThT %). […] Compound 17 was the best representative of the 5-aminoindole series and moved to the tier-2 assays, even though the resulting ThT percentage of fluorescence intensity was 10% higher than the cut off. These compounds were then tested on tau 2N4R ThT fluorescence assays.

In assay [1] the target is T2, tau isoform 2N4R (Homo sapiens, UniProt P10636).
T2 construct: made in house; host or cells: E. coli BL21 (DE3), vector pRK172
Briefly: ThT fluorescence assay of tau isoform 2N4R fibril formation. Particulars: compound 100 μM, tau 2N4R 6 μM. How it is done: as §1
Concerning the non-phosphorylated tau (isoform 2N4R) kinetics of fibril formation, ThT was performed with the tau protein solution was diluted to a final concentration of 6 μM in PBS (pH 7.4) supplemented with 1.5 μM heparin, 20 μM ThT, 2.5 mM DTT, and 100 μM compound. Aliquots of the diluted protein solution (100 μL each) were pipetted into the wells of a 96-well plate, and a Teflon ball was added to each well. The plate was incubated at 37° C. with constant shaking at 1,000 rpm in a Tecan Stark plate reader. ThT fluorescence was measured every 15 min with excitation and emission wavelengths of 440 nm and 480 nm, and the data were plotted using GraphPad Prism.
Various structural analogs were first tested at a final concentration of 100 μM in the presence of tau 2N4R at 6 μM. Compounds 2, 4-8, and 17 were pre-selected with α-syn ThT assay prior to evaluation on the tau isoform 2N4R.

For assay [2], the target named is T2, tau isoform 2N4R. The assay can be described thus: PICUP assay of tau isoform 2N4R oligomerization. Conditions: compound 50 μM. How it is done: To force the oligomerization by cross-linking, α-syn (from Rpeptide, LLC) and tau isoform 2N4R were diluted in 10 mM phosphate buffer (pH 7.4) to reach a final concentration of 10 μM [27]. Different compounds were added to the protein solution at a final concentration of 50 μM, resulting in a molar ratio of 1:5. To confirm the gradual effect of the compounds on the inhibition of α-syn oligomerization, compounds were tested at final concentration of 3.125, 6.25, 12.5, 25, and 50 μM. The controls consisted of samples without light exposition, without Ru(bpy), and without compound (i.e., 0.125% DMSO). The cross-linking reaction was initiated by the addition of 2 μL of Ru(bpy) (300 μM final concentration) and 2 μL ammonium persulfate (6 mM final concentration). Samples were irradiated immediately. Light exposition was of 1 second duration for ca-syn and 3 second duration for tau isoform 2N4R, with a 53 W (120 V) incandescent lamp installed in a homemade dark-box. Each tube contained a final volume of 20 μL. After irradiation, 8.3 μL. of Lammeli loading buffer containing 15% β-mercaptoethanol was immediately added to the solution, followed by incubation at 95° C. for 10 minutes. The cross-linked samples were separated on a 16% SDS-Page gel and visualized by Coomassie blue staining.
One end point used to verify the propensity of misfolded protein in the drug discovery field is the inhibition of oligomer formation. The photo-induced cross-linking of unmodified proteins (PICUP) assay was used to investigate α-syn (60 μM) and tau isoform 2N4R (6 μM) oligomerization in the presence of eight amide compounds (2, 4, 5, 6, 7, 8, 13, and 17 at 50 μM, i.e., ~molar ratio 1:8 for tau). After being subjected to short light exposure, α-syn and tau were cross-linked and Coomassie-stained resolved as a higher molecular weight compared to control (0.125% DMSO). […] Compound 13 was used as a negative control for the α-syn PICUP.
PICUP assays were performed with different concentrations (50 μM, 25 μM, 12.5 μM, 6.25 μM, 3.125 μM; control=0.125% DMSO) for each lead compound.

The remaining activity is the signal under treatment as a percentage of the control signal.

Where only a bound is given, the exact number is not on record here.

T2 sequence (P10636 1-441 isoform P10636-8): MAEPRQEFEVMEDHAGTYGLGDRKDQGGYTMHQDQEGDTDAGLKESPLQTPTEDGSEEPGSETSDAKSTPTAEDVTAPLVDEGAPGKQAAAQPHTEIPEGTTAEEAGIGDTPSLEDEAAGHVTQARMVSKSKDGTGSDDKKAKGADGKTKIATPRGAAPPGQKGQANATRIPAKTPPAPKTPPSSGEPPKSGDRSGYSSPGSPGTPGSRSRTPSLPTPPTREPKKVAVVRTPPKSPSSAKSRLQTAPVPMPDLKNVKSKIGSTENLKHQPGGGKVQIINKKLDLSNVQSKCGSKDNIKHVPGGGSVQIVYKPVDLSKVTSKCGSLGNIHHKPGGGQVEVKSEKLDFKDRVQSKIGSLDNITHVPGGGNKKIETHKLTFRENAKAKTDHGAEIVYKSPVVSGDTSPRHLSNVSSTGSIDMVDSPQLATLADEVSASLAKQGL

As to `O=C(Nc1cccc2[nH]ccc12)c1cccs1` [Compound 1], the remaining activity at 100 µM on α-synuclein (α-syn) turned out to be 64%.

As to `COc1cccc(C(=O)Nc2cccc3[nH]ccc23)c1` [Compound 3], the remaining activity at 100 µM on α-synuclein (α-syn) amounted to 43%.

For the compound `O=C(Nc1cccc2[nH]ccc12)c1ccc(Cl)cc1` [Compound 4, 4-chloro-N-(1H-indol-4-yl)benzamide], the remaining activity at 100 µM on α-synuclein (α-syn) is ≤ 30%. In addition, the “effect on tau isoform 2N4R fibril formation (ThT)” value (“effect” below) at tau isoform 2N4R [1] was “good inhibitory effect”.

As to `O=C(Nc1cccc2[nH]ccc12)c1ccccc1Cl` [Compound 5, 2-chloro-N-(1H-indol-4-yl)benzamide], at α-synuclein (α-syn), the remaining activity at 100 µM was ≤ 30%. Besides, the “effect” value at tau isoform 2N4R [1] is “good inhibitory effect”. Consider `O=C(Nc1cccc2[nH]ccc12)c1ccc(C(F)(F)F)cc1` [Compound 6, N-(1H-indol-4-yl)-4-(rifluoromethyl)benzamide], for which the remaining activity at 100 µM at α-synuclein (α-syn) was ≤ 30%. Besides, the “effect” value on tau isoform 2N4R [1] was “weaker anti-fibrilization effect”. Besides, at tau isoform 2N4R [2], the “tau isoform 2N4R oligomerization (PICUP crosslinking)” value is on record as “strongest oligomer band”.

In the case of `N#Cc1ccc(C(=O)Nc2cccc3[nH]ccc23)cc1` [Compound 7, 4-cyano-N-(1H-indol-4-yl)benzamide], the remaining activity at 100 µM at α-synuclein (α-syn) is ≤ 30%. Moreover, on tau isoform 2N4R [1], the “effect” value was “good inhibitory effect”. On to `O=C(Nc1ccc2[nH]ccc2c1)c1cccs1` [Compound 9, N-(1H-indol-5-yl)thiophene-2-carboxamide], for which, at α-synuclein (α-syn), the remaining activity at 100 µM was 40.5 ± 2.3%. Turning to `O=C(Nc1ccc2[nH]ccc2c1)c1ccccc1` [Compound 10, N-(1H-indol-5-yl)benzamide], the remaining activity at 100 µM at α-synuclein (α-syn) amounted to 102 ± 13.3%. For `COc1cccc(C(=O)Nc2ccc3[nH]ccc3c2)c1` [Compound 11, N-(1H-indol-5-yl)-3-methoxybenzamide], the remaining activity at 100 µM at α-synuclein (α-syn) is 48.6 ± 2.6%. Consider `O=C(Nc1ccc2[nH]ccc2c1)c1ccc(Cl)cc1` [Compound 12, 4-chloro-N-(1H-indol-5-yl)benzamide], for which the remaining activity at 100 µM on α-synuclein (α-syn) is 67.5 ± 16.3%.

Consider `N#Cc1ccc(C(=O)Nc2ccc3[nH]ccc3c2)cc1` [Compound 15, 4-cyano-N-(1H-indol-5-yl)benzamide], for which the remaining activity at 100 µM at α-synuclein (α-syn) amounted to 62.7 ± 4.1%.

As for `O=C(Nc1ccc2[nH]ccc2c1)c1ccc(F)cc1` [Compound 16, 4-fluoro-N-(1H-indol-5-yl)benzamide], at α-synuclein (α-syn), the remaining activity at 100 µM came out at 48.5 ± 1.7%. On the same count and under the same terms, under `Nc1cccc(C(=O)Nc2ccc3[nH]ccc3c2)c1` [Compound 17, 3-amino-(1H-indol-5-yl)benzamide] stands 40%. With `O=C(Nc1ccc2c(c1)Cc1ccccc1-2)c1ccc(Cl)cc1` [Compound 18, 4-chloro-N-(9H-fluoren-2-yl)benzamide], at α-synuclein (α-syn), the remaining activity at 100 µM is 69.4% and the “α-Syn ThT%” value came to 69.4 ± 6.70%.

For the origin of these results see patent US20260274794A1, “COMPOUNDS, COMPOSITIONS, AND METHOD OF INHIBITING TAU PROTEIN AND ALPHASYNUCLEIN AGGREGATION” (Purdue Research Foundation, priority 2023, published 2026).
